Data: patent publication US20230263918A1, “ANTIVIRAL METHODS AND COMPOSITIONS” (priority 2020, published 2023)

Experiments:
[1] = tested on: E. coli; experiment: Light-activated killing of bacteria (E. coli); format: cell-based; conditions: for light-activated killing of bacteria: E. coli; for anti-bacterial activity using cool white light: LuzChem "cool white" light
Source text: No killing of bacteria in the dark has yet been observed.
Compound E was applied to a wet wipe surface and also to the surface of a filter for filtration of air or water.

[2] = tested on: mammal models; conditions: in vivo

Cn1cc[n+](CCCCc2ccc(C#Cc3ccc(C#Cc4ccc(OCCC[n+]5ccn(C)c5)cc4)s3)cc2)c1 [Compound E]
light-activated killing of bacteria [1]: excellent | anti-bacterial activity using cool white light [1]: excellent anti-bacterial activity | light-activated killing on surfaces ([1]; applied to wet wipe surface and filter surface for air or water): strong light-activated killing | killing of bacteria in the dark ([1]; dark): No killing | activity when surface immersed in E. Coli suspension ([1]; wet wipe / filter surface immersed in suspension of E. Coli): activity was retained | toxicity against mammal models [2]: no toxicity

Cn1cc[n+](CCCOc2ccc(C#Cc3ccc(C#Cc4ccc(OCCC[n+]5ccn(C)c5)cc4)cc3)cc2)c1 [Compound D]
light-activated killing of bacteria [1]: excellent | anti-bacterial activity using cool white light [1]: excellent anti-bacterial activity | relative reactivity in bacterial killing ([1]; light-activated): more reactive than Compound E
